Measurements reported in patent US20250332183A1, “COMPOSITIONS AND METHODS FOR THE STIMULATION OF INTERMEDIATE MACROPHAGES AND TREATMENTS THEREWITH” (priority 2024, published 2025).
“Also recorded” adds a separate entry of the source.

Assays:
[1] = tested on: mice; test: AVR-48 pretreatment of mice followed by LPS, immune cell profile; format: in vivo, mouse; conditions: mice pretreated with AVR-48, in the presence of LPS
Excerpt: AVR-48 stimulated innate and adaptive immune response via (FIG. 25E) TNF-α increase and (FIG. 25F) CD3+, (FIG. 25G) CD4+, and (FIG. 25H) CD8+ T-cells, a necessary step in adaptive response and immune resolution. *p<0.05, **p<0.01, ***p<0.001; N=4, One-way ANOVA was used for analysis.

[2] = tested on: preterm lamb model of BPD; test: Neurobehavioral assessments (curiosity, socialization, learning and memory); format: in vivo
Excerpt: Neurobehavioral assessments. The inventors adapted tests for curiosity, using novel objects of different colors and shapes; socialization, using a nonreflective (dull) surface versus a reflective surface (mirror); and learning and memory, using a maze with a reward.^20 These tests were adapted from other studies that assessed the neurobehavior of sheep.^20-25 Assessments were made over 2 weeks.
Habituation (open-field for exploration; days 1 and 2) was used to familiarize the lambs with the test, rest rooms, and tender. Habituation was accomplished on days 1 and 2 by a 10-minute stay in the test room, a 30-minute rest period in the rest room, and another 10-minute stay in the test room. Habituation was repeated the next day.
Tests were (1) curiosity, using novel objects; (2) socialization, using a non-reflective surface and a reflective surface; and (3) learning and memory (using a maze with a milk bottle reward). The tests were done on sequential days over two weeks. Tests were trials of 10-min each, with a 30-min rest period between trials. Each 10-min trial was video recorded, using the Noldus System (model EthoVision XT 17 with the Physiology Integration Module; Noldus Information Technology Inc., Leesburg, VA). The test room had tape on the floor that divided the floor into 9 zones for identification of movement direction and speed, inactivity, etc., in video playback. A ceiling camera recorded each test session. The camera was connected to a dedicated computer with the Noldus software to document lamb activity and time. The novel objects test required four trials on day 3. Trials 1 and 2 used two objects (brown and blue bowls) affixed to the floor. For trial 3, before the lamb was returned to the test room, the brown bowl was replaced with a novelx object (pink pitcher). For trial 4, before the lamb was returned to the test room, a new object (yellow ball) was added with the blue bowl and pink pitcher (3 objects). Analysis was the number of times and the time spent investigating each object.
The socialization test required two trials each on days 4 and 5. Two metallic surfaces were attached to a wall, one with a non-reflective and the other with a reflective surface. Analysis was the number of times and the time spent investigating each surface.
The following week, the learning and memory test required two trials on day 6. A maze made of solid metal panels was set up in the test room. A tender was in one corner of the maze, holding a bottle of milk, the reward for completing the maze. Once the tender was in place, the lamb entered the test room. Analysis was the time to reach the milk bottle reward.

[3] = tested on: TLR4 pathway; test: Western blot of TLR4 pathway proteins in hPBMC and CBMCs; format: cell-based, human; conditions: 100 μM, alone and with LPS 50 ng/mL
Procedure: FIGS. 14A to 14D show Western Blot analysis for quantification of TLR4 pathway proteins and densitometry of (FIGS. 14A-FIG. 14C) using adult hPBMC and (FIG. 14D) CBMCs. After treatment with AVR-48 [100 μM], LPS [50 ng/mL], and in combination indicates AVR-48 activates TLR4 pathway via increasing phospho-MyD88 and phospho-TTRAP, with no activation via TRAM, and inhibiting the phosphorylation of the NF-kB pathway.
CBMCs were treated with either AVR-123 [100 μM], LPS [50 ng/mL] or AVR-123+LPS for 24 h. […] (FIG. 23G) AVR-123 decreases phosphorylated NFkB alone and when combined with LPS in CBMCs via western blot analysis. N=3, One-way ANOVA.

[4] = 2 moC PNA (d90), FPT lambs vs FPT vehicle

CC(=O)NC1C(Oc2ccc([N+](=O)[O-])cc2)OC(CO)C(O)C1O (centres unmarked) [AVR-48]
CD3+ T-cells [1]: stimulated
CD4+ T-cells [1]: stimulated
CD8+ T-cells [1]: stimulated
M1 macrophages [1]: increased
Mint (intermediate) macrophages [1]: increased
TNF-α [1]: increase
curiosity and socialization outcomes (time at novel object, dull surface, mirror) ([2]; 1 moC PNA (day of life 60), among groups): No differences were detected
time at novel object (curiosity test) ([2]; 2 moC PNA (d90), FPT lambs 3.0 mg/kg/dose vs FPT vehicle): significantly less time; also recorded: significantly shorter
time at the dull surface (socialization test) [2, 4]: less time (not significant); also recorded: significantly shorter
time at the mirror (reflective surface, socialization test) [2, 4]: more time (not significant); also recorded: significantly longer
time to navigate the maze to reach the milk bottle reward (learning and memory test) [2, 4]: significantly faster; also recorded: less (not significant)
activation via TRAM [3]: no activation
phospho-MyD88 [3]: increasing
phospho-TTRAP [3]: increasing
